Laboratory results from patent publication US10221129B2, “Inhibitors of human immunodeficiency virus replication” (ViiV HEALTHCARE UK (NO.5) LIMITED, priority 2015, dated 2019).

Legend:
[1] = tested on: recombinant NL4-3 virus (nef section replaced with Renilla luciferase gene) in MT-2 cells; assay: HIV cell culture assay (antiviral activity, luciferase readout); format: cell-based; conditions: Renilla, NL43, MT-2 cells infected for 4-5 days with recombinant NL4-3 Renilla luciferase virus
How it was run: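 Serial compound dilutions tested in MT-2 cells infected for 4-5 days with 293T-derived NL4-3 virus carrying Renilla luciferase in place of part of nef. Antiviral activity quantified as luciferase activity, read with a live-cell substrate.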

[2] = Compound cytotoxicity, XTT-based colorimetric assay; format: cell-based; conditions: human, uninfected MT2 cells, day 4, XTT
How it was run: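 Run under the antiviral-assay protocol but without virus. Viability was read on day 4 and CC50 values were derived from the readout.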

| SMILES | EC50 [1] | CC50 at 4 days [2] |
| --- | --- | --- |
| CN(C(=O)[C@H](Cc1cc(F)cc(F)c1)NC(=O)NS(=O)(=O)NCC1CC1)c1ccc2scnc2c1 [CA-127] | 60 nM | > 100000 nM |
| COC1CN(S(=O)(=O)NC(=O)N[C@@H](Cc2cc(F)cc(F)c2)C(=O)N(C)c2ccc3scnc3c2)C1 [CA-128] | 100 nM | > 100000 nM |
| CN(C(=O)[C@H](Cc1cc(F)cc(F)c1)NC(=O)NS(=O)(=O)N1CC(C)(O)C1)c1ccc2scnc2c1 [CA-129] | 140 nM | > 100000 nM |
| CN(C(=O)[C@H](Cc1cc(F)cc(F)c1)NC(=O)NS(=O)(=O)N1CC(F)(F)C1)c1ccc2scnc2c1 [CA-130] | 450 nM | > 100000 nM |
| CN(C(=O)[C@H](Cc1cc(F)cc(F)c1)NC(=O)NS(=O)(=O)N1CCC[C@H]1CO)c1ccc2scnc2c1 [CA-131] | 210 nM | > 100000 nM |
| CN(C(=O)[C@H](Cc1cc(F)cc(F)c1)NC(=O)NS(=O)(=O)NC1CCC1)c1ccc2scnc2c1 [CA-132] | 50 nM | > 100000 nM |
| CN(C(=O)[C@H](Cc1cc(F)cc(F)c1)NC(=O)NS(=O)(=O)N1CCC(Cc2ccccc2)CC1)c1ccc2scnc2c1 [CA-133] | 720 nM | 86400 nM |
| CN(C(=O)[C@H](Cc1cc(F)cc(F)c1)NC(=O)NS(=O)(=O)NCc1ccccn1)c1ccc2scnc2c1 [CA-134] | 430 nM | > 100000 nM |
| CN(C(=O)[C@H](Cc1cc(F)cc(F)c1)NC(=O)NS(=O)(=O)NCc1cccnc1)c1ccc2scnc2c1 [CA-135] | 1530 nM | > 100000 nM |
| CC(C)NS(=O)(=O)NC(=O)N[C@@H](Cc1cc(F)cc(F)c1)C(=O)N(C)c1ccc2scnc2c1 [CA-136] | 60 nM | > 100000 nM |
| CC(=O)NCCNS(=O)(=O)NC(=O)N[C@@H](Cc1cc(F)cc(F)c1)C(=O)N(C)c1ccc2scnc2c1 [CA-137] | 1220 nM | > 100000 nM |
| CN(C(=O)[C@H](Cc1cc(F)cc(F)c1)NC(=O)NS(=O)(=O)NCCO)c1ccc2scnc2c1 [CA-138] | 270 nM | > 100000 nM |
| CN(C(=O)[C@H](Cc1cc(F)cc(F)c1)NC(=O)NS(=O)(=O)N(C)Cc1ccccc1)c1ccc2scnc2c1 [CA-139] | 220 nM | > 100000 nM |
| CC(C)CN(C)S(=O)(=O)NC(=O)N[C@@H](Cc1cc(F)cc(F)c1)C(=O)N(C)c1ccc2scnc2c1 [CA-140] | 40 nM | > 100000 nM |
| CCCN(C)S(=O)(=O)NC(=O)N[C@@H](Cc1cc(F)cc(F)c1)C(=O)N(C)c1ccc2scnc2c1 [CA-141] | 40 nM | > 100000 nM |
| CN(C(=O)[C@H](Cc1cc(F)cc(F)c1)NC(=O)NS(=O)(=O)NC1CC1)c1ccc2scnc2c1 [CA-142] | 40 nM | > 100000 nM |
| CN(C(=O)[C@H](Cc1cc(F)cc(F)c1)NC(=O)NS(=O)(=O)NCC(C)(C)C)c1ccc2scnc2c1 [CA-143] | 50 nM | > 100000 nM |
| CC(C)CNS(=O)(=O)NC(=O)N[C@@H](Cc1cc(F)cc(F)c1)C(=O)N(C)c1ccc2scnc2c1 [CA-144] | 40 nM | > 100000 nM |
| CC(C)CCNS(=O)(=O)NC(=O)N[C@@H](Cc1cc(F)cc(F)c1)C(=O)N(C)c1ccc2scnc2c1 [CA-145] | 120 nM | > 100000 nM |

| SMILES | EC50 [1] | CC50 at 4 days [2] |
| --- | --- | --- |
| CCCNS(=O)(=O)NC(=O)N[C@@H](Cc1cc(F)cc(F)c1)C(=O)N(C)c1ccc2scnc2c1 [CA-146] | 50 nM | > 100000 nM |
| CC(C)N(C)S(=O)(=O)NC(=O)N[C@@H](Cc1cc(F)cc(F)c1)C(=O)N(C)c1ccc2scnc2c1 [CA-147] | 80 nM | > 100000 nM |
| CC(=O)N1CCN(S(=O)(=O)NC(=O)N[C@@H](Cc2cc(F)cc(F)c2)C(=O)N(C)c2ccc3scnc3c2)CC1 [CA-148] | 10300 nM | > 100000 nM |
| COCCN(C)S(=O)(=O)NC(=O)N[C@@H](Cc1cc(F)cc(F)c1)C(=O)N(C)c1ccc2scnc2c1 [CA-149] | 80 nM | > 100000 nM |
| Cc1cnc(CNS(=O)(=O)NC(=O)N[C@@H](Cc2cc(F)cc(F)c2)C(=O)N(C)c2ccc3scnc3c2)cn1 [CA-150] | 460 nM | > 100000 nM |
| CN(C(=O)[C@H](Cc1cc(F)cc(F)c1)NC(=O)NS(=O)(=O)N1CCNC(=O)C1)c1ccc2scnc2c1 [CA-151] | 1070 nM | > 100000 nM |
| COCCNS(=O)(=O)NC(=O)N[C@@H](Cc1cc(F)cc(F)c1)C(=O)N(C)c1ccc2scnc2c1 [CA-153] | 150 nM | 9000 nM |
| CCN(C)S(=O)(=O)NC(=O)N[C@@H](Cc1cc(F)cc(F)c1)C(=O)N(C)c1ccc2scnc2c1 [CA-154] | 30 nM | > 50000 nM |
| CN(C(=O)[C@H](Cc1cc(F)cc(F)c1)NC(=O)NS(=O)(=O)N1CCC(O)CC1)c1ccc2scnc2c1 [CA-155] | 200 nM | > 100000 nM |
| CN(C(=O)[C@H](Cc1cc(F)cc(F)c1)NC(=O)NS(=O)(=O)N1CCC(c2ccccc2)CC1)c1ccc2scnc2c1 [CA-156] | 8320 nM | 99200 nM |
| CN(C(=O)[C@H](Cc1cc(F)cc(F)c1)NC(=O)NS(=O)(=O)N1CCc2ccccc2C1)c1ccc2scnc2c1 [CA-157] | 880 nM | 99700 nM |
| CN(C(=O)[C@H](Cc1cc(F)cc(F)c1)NC(=O)NS(=O)(=O)NCCc1ccccc1)c1ccc2scnc2c1 [CA-158] | 340 nM | > 100000 nM |
| Cc1ccc(N(C)C(=O)[C@H](Cc2cc(F)cc(F)c2)NC(=O)NS(=O)(=O)N2CCc3cccnc32)cn1 [GW-2] | 70 nM | > 100000 nM |
| CCc1ccc(N(C)C(=O)[C@H](Cc2cc(F)cc(F)c2)NC(=O)NS(=O)(=O)N2CCc3cccnc32)cn1 [GW-3] | 20 nM | > 100000 nM |
| Cc1ccc(N(C)C(=O)[C@H](Cc2cc(F)cc(F)c2)NC(=O)NS(=O)(=O)N2CCc3cccnc32)nc1 [GW-4] | 220 nM | > 100000 nM |
| CN(C(=O)[C@H](Cc1cc(F)cc(F)c1)NC(=O)NS(=O)(=O)N1CCc2cccnc21)c1ccc2sc(=O)[nH]c2c1 [GW-5] | 320 nM | > 100000 nM |
| CN(C(=O)[C@H](Cc1cc(F)cc(F)c1)NC(=O)NS(=O)(=O)N1CCc2cccnc21)c1ccc2c(c1)ncn2C [GW-6] | 630 nM | > 25000 nM |
| CN(C(=O)[C@H](Cc1cc(F)cc(F)c1)NC(=O)NS(=O)(=O)N1CCc2cccnc21)c1ccc(OC(F)(F)F)cc1 [GW-7] | 30 nM | 16800 nM |
| CN(C(=O)[C@H](Cc1cc(F)cc(F)c1)NC(=O)NS(=O)(=O)N1CCc2cccnc21)c1ccc2c(cnn2C)c1 [GW-8] | 100 nM | > 25000 nM |

| SMILES | EC50 [1] | CC50 at 4 days [2] |
| --- | --- | --- |
| CN(C(=O)[C@H](Cc1cc(F)cc(F)c1)NC(=O)NS(=O)(=O)N1CCc2cccnc21)c1ccc(C(F)(F)F)nc1 [GW-9] | 180 nM | 35100 nM |
| CN(C(=O)[C@H](Cc1cc(F)cc(F)c1)NC(=O)NS(=O)(=O)N1CCc2cccnc21)c1ccc(C2CC2)cc1 [GW-10] | 30 nM | 91000 nM |
| COc1ccc(N(C)C(=O)[C@H](Cc2cc(F)cc(F)c2)NC(=O)NS(=O)(=O)N2CCc3cccnc32)cn1 [GW-11] | 90 nM | > 100000 nM |
| CN(C(=O)[C@H](Cc1cc(F)cc(F)c1)NC(=O)NS(=O)(=O)N1CCc2cccnc21)c1ccc(C(F)F)nc1 [GW-12] | 120 nM | > 100000 nM |
| CN(C(=O)[C@H](Cc1cc(F)cc(F)c1)NC(=O)NS(=O)(=O)N1CCc2cccnc21)c1ccc(OC(F)F)nc1 [GW-13] | 60 nM | > 100000 nM |
| Cc1ncc(N(C)C(=O)[C@H](Cc2cc(F)cc(F)c2)NC(=O)NS(=O)(=O)N2CCc3cccnc32)cn1 [GW-14] | 1610 nM | > 100000 nM |
| Cc1ncc(N(C)C(=O)[C@H](Cc2cc(F)cc(F)c2)NC(=O)NS(=O)(=O)N2CCc3cccnc32)cc1Cl [GW-15] | 970 nM | 5100 nM |
| CN(C(=O)[C@H](Cc1cc(F)cc(F)c1)NC(=O)NS(=O)(=O)N1CCc2cccnc21)c1cnc2scnc2c1 [GW-16] | 280 nM | > 100000 nM |
| CCc1ccc(N(C)C(=O)[C@H](Cc2cc(F)cc(F)c2)NC(=O)NS(=O)(=O)N(C)C)cn1 [GW-17] | 100 nM | > 100000 nM |
| CN(C(=O)[C@H](Cc1cc(F)cc(F)c1)NC(=O)NS(=O)(=O)N1CCc2cccnc21)c1cccnc1 [GW-18] | 180 nM | > 100000 nM |
| CN(C(=O)[C@H](Cc1cc(F)cc(F)c1)NC(=O)NS(=O)(=O)N1CCc2cccnc21)c1ccc2sc(=O)n(C)c2c1 [GW-19] | 60 nM | > 100000 nM |
| Cc1cc(N(C)C(=O)[C@H](Cc2cc(F)cc(F)c2)NC(=O)NS(=O)(=O)N2CCc3cccnc32)cnc1C [GW-20] | 230 nM | > 100000 nM |
| Cc1nc2c(F)c(N(C)C(=O)[C@H](Cc3cc(F)cc(F)c3)NC(=O)NS(=O)(=O)N3CCc4cccnc43)ccc2s1 [GW-21] | 80 nM | > 100000 nM |
| CN(C(=O)[C@H](Cc1cc(F)cc(F)c1)NC(=O)NS(=O)(=O)N1CCc2cccnc21)c1ccc2scnc2c1F [GW-22] | 10 nM | > 100000 nM |
| [2H]c1nc2cc(N(C)C(=O)[C@H](Cc3cc(F)cc(F)c3)NC(=O)NS(=O)(=O)N3CCc4cccnc43)ccc2s1 [GW-23] | 20 nM | > 10000 nM |
| COc1ccc(N(C)C(=O)[C@H](Cc2ccccc2)NC(=O)NS(=O)(=O)N2CCc3ccccc32)cc1 [JB-1] | 110 nM | > 100000 nM |
| COc1ccc(N(C)C(=O)[C@H](Cc2ccccc2)NC(=O)NS(=O)(=O)N2CCCc3ccccc32)cc1 [JB-2] | 110 nM | > 33300 nM |
| COc1ccc(N(C)C(=O)[C@H](Cc2ccccc2)NC(=O)NS(=O)(=O)N(C)c2ccccc2)cc1 [JB-3] | 130 nM | > 100000 nM |
| COc1ccc(N(C)C(=O)[C@H](Cc2ccccc2)NC(=O)NS(=O)(=O)Nc2ccccc2)cc1 [JB-4] | 140 nM | > 100000 nM |
